Test results: the supplement of paper PMC10307832

Experiments:
Assay in all cases: relative viability (nuclei count vs DMSO), 5 days (fraction); higher = more cells survive
RERF-LC-KJ = tested on: RERF-LC-KJ
In short: (§1)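 Each reported value is a median over duplicate plates. It expresses relative viability: treated-well nuclei count divided by vehicle-well nuclei count. Lung cancer cell lines in 1536-well plates were dosed by pin tool a day after seeding, alone with one drug or with a fixed anchor-drug dose plus five library-drug doses (not always all listed) in √10 steps, and nuclei were counted after 5 days.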

NCI-H1563 = tested on: NCI-H1563
In short: as §1

LCLC-97TM1 = tested on: LCLC-97TM1
In short: as §1

NCI-H1651 = tested on: NCI-H1651
In short: as §1

NCI-H838 = tested on: NCI-H838
In short: as §1

NCI-H727 = tested on: NCI-H727
In short: as §1

H3255 = tested on: H3255
In short: as §1

LCLC-103H = tested on: LCLC-103H
In short: as §1

A-427 = tested on: A-427
In short: as §1

NCI-H1793 = tested on: NCI-H1793
In short: as §1

NCI-H23 = tested on: NCI-H23
In short: as §1

LU99A = tested on: LU99A
In short: as §1

NCI-H2347 = tested on: NCI-H2347
In short: as §1

PC-14 = tested on: PC-14
In short: as §1

PC-3 [JPC-3] = tested on: PC-3 [JPC-3]
In short: as §1

SW 900 = tested on: SW 900
In short: as §1

NCI-H1650 = tested on: NCI-H1650
In short: as §1

NCI-H460 = tested on: NCI-H460
In short: as §1

LK-2 = tested on: LK-2
In short: as §1

COR-L23 = tested on: COR-L23
In short: as §1

NCI-H1944 = tested on: NCI-H1944
In short: as §1

NCI-H650 = tested on: NCI-H650
In short: as §1

SW 1573 = tested on: SW 1573
In short: as §1

201T = tested on: 201T
In short: as §1

Molecule `COc1cc(N2CCC(C(N)=O)CC2)ccc1Nc1nc(N)c(Cl)c(Nc2ccccc2S(=O)(=O)C(C)C)n1` [HG-5-88-01] + CCNC(=O)c1noc(-c2cc(C(C)C)c(O)cc2O)c1-c1ccc(CN2CCOCC2)cc1 [Luminespib] (partner 0.01 µM) has a relative viability (RERF-LC-KJ; first compound 0.04 µM) of 1.4, a relative viability (RERF-LC-KJ; first compound 0.1265 µM) of 1.33 and a relative viability (RERF-LC-KJ; first compound 0.4 µM) of 1.25. The relative viability (RERF-LC-KJ; first compound 1.265 µM) was 1.23, the relative viability (RERF-LC-KJ; first compound 4 µM) was 0.963 and the relative viability (NCI-H1563; first compound 0.04 µM) was 0.542. For the same molecule, the relative viability (NCI-H1563; first compound 0.1265 µM) was 0.539, the relative viability (NCI-H1563; first compound 0.4 µM) was 0.476 and the relative viability (NCI-H1563; first compound 1.265 µM) was 0.485. It also gave a relative viability (NCI-H1563; first compound 4 µM) of 0.519, a relative viability (LCLC-97TM1; first compound 0.04 µM) of 0.864 and a relative viability (LCLC-97TM1; first compound 0.1265 µM) of 0.647. The relative viability (LCLC-97TM1; first compound 0.4 µM) was 0.713, the relative viability (LCLC-97TM1; first compound 1.265 µM) was 0.511 and the relative viability (LCLC-97TM1; first compound 4 µM) was 0.301. For the same molecule, the relative viability (NCI-H1651; first compound 0.04 µM) was 0.87, the relative viability (NCI-H1651; first compound 0.1265 µM) was 0.976 and the relative viability (NCI-H1651; first compound 0.4 µM) was 1.17. It also gave a relative viability (NCI-H1651; first compound 1.265 µM) of 0.771, a relative viability (NCI-H1651; first compound 4 µM) of 0.934 and a relative viability (NCI-H838; first compound 0.04 µM) of 0.322. The relative viability (NCI-H838; first compound 0.1265 µM) was 0.288, the relative viability (NCI-H838; first compound 0.4 µM) was 0.212 and the relative viability (NCI-H838; first compound 1.265 µM) was 0.276. The relative viability (NCI-H838; first compound 4 µM) was 0.205, the relative viability (NCI-H727; first compound 0.04 µM) was 0.566 and the relative viability (NCI-H727; first compound 0.1265 µM) was 0.344. It also gave a relative viability (NCI-H727; first compound 0.4 µM) of 0.337, a relative viability (NCI-H727; first compound 1.265 µM) of 0.313 and a relative viability (NCI-H727; first compound 4 µM) of 0.31. It also gave a relative viability (H3255; first compound 0.04 µM) of 0.752, a relative viability (H3255; first compound 0.1265 µM) of 0.913 and a relative viability (H3255; first compound 0.4 µM) of 0.818. It also gave a relative viability (H3255; first compound 4 µM) of 0.847, a relative viability (LCLC-103H; first compound 0.04 µM) of 1.08 and a relative viability (LCLC-103H; first compound 0.1265 µM) of 1.01. It also gave a relative viability (LCLC-103H; first compound 0.4 µM) of 0.888, a relative viability (LCLC-103H; first compound 1.265 µM) of 0.894 and a relative viability (LCLC-103H; first compound 4 µM) of 0.879. The relative viability (A-427; first compound 0.04 µM) was 1.13, the relative viability (A-427; first compound 0.1265 µM) was 0.916 and the relative viability (A-427; first compound 0.4 µM) was 0.901. The relative viability (A-427; first compound 1.265 µM) was 0.769, the relative viability (A-427; first compound 4 µM) was 0.754 and the relative viability (NCI-H1793; first compound 0.1265 µM) was 0.168. The relative viability (NCI-H1793; first compound 0.4 µM) was 0.198, the relative viability (NCI-H1793; first compound 4 µM) was 0.272 and the relative viability (NCI-H23; first compound 0.04 µM) was 0.215. It also gave a relative viability (NCI-H23; first compound 0.1265 µM) of 0.203, a relative viability (NCI-H23; first compound 0.4 µM) of 0.225 and a relative viability (NCI-H23; first compound 1.265 µM) of 0.187. The relative viability (NCI-H23; first compound 4 µM) was 0.241, the relative viability (LU99A; first compound 0.04 µM) was 0.214 and the relative viability (LU99A; first compound 0.1265 µM) was 0.217. For the same molecule, the relative viability (LU99A; first compound 0.4 µM) was 0.288, the relative viability (LU99A; first compound 1.265 µM) was 0.275 and the relative viability (LU99A; first compound 4 µM) was 0.252. It also gave a relative viability (NCI-H2347; first compound 0.04 µM) of 0.282, a relative viability (NCI-H2347; first compound 0.1265 µM) of 0.467 and a relative viability (NCI-H2347; first compound 0.4 µM) of 0.32. For the same molecule, the relative viability (NCI-H2347; first compound 1.265 µM) was 0.398, the relative viability (NCI-H2347; first compound 4 µM) was 0.339 and the relative viability (PC-14; first compound 0.04 µM) was 0.173. The relative viability (PC-14; first compound 0.1265 µM) was 0.209, the relative viability (PC-14; first compound 0.4 µM) was 0.181 and the relative viability (PC-14; first compound 1.265 µM) was 0.131. The relative viability (PC-14; first compound 4 µM) was 0.194, the relative viability (PC-3 [JPC-3]; first compound 0.04 µM) was 0.709 and the relative viability (PC-3 [JPC-3]; first compound 0.1265 µM) was 0.656. For the same molecule, the relative viability (PC-3 [JPC-3]; first compound 0.4 µM) was 0.724, the relative viability (PC-3 [JPC-3]; first compound 1.265 µM) was 0.744 and the relative viability (PC-3 [JPC-3]; first compound 4 µM) was 0.743. For the same molecule, the relative viability (SW 900; first compound 0.04 µM) was 0.158, the relative viability (SW 900; first compound 0.1265 µM) was 0.207 and the relative viability (SW 900; first compound 0.4 µM) was 0.185. The relative viability (SW 900; first compound 1.265 µM) was 0.157, the relative viability (SW 900; first compound 4 µM) was 0.186 and the relative viability (NCI-H1650; first compound 0.04 µM) was 0.156. It also gave a relative viability (NCI-H1650; first compound 0.1265 µM) of 0.184, a relative viability (NCI-H1650; first compound 0.4 µM) of 0.172 and a relative viability (NCI-H1650; first compound 1.265 µM) of 0.197. The relative viability (NCI-H1650; first compound 4 µM) was 0.204, the relative viability (NCI-H460; first compound 0.04 µM) was 0.0373 and the relative viability (NCI-H460; first compound 0.1265 µM) was 0.0308. It also gave a relative viability (NCI-H460; first compound 0.4 µM) of 0.0242, a relative viability (NCI-H460; first compound 1.265 µM) of 0.0363 and a relative viability (NCI-H460; first compound 4 µM) of 0.0375. For the same molecule, the relative viability (LK-2; first compound 0.04 µM) was 0.192, the relative viability (LK-2; first compound 0.1265 µM) was 0.241 and the relative viability (LK-2; first compound 0.4 µM) was 0.205. It also gave a relative viability (LK-2; first compound 1.265 µM) of 0.183, a relative viability (LK-2; first compound 4 µM) of 0.193 and a relative viability (COR-L23; first compound 0.04 µM) of 0.69. The relative viability (COR-L23; first compound 0.1265 µM) was 0.575, the relative viability (COR-L23; first compound 0.4 µM) was 0.589 and the relative viability (COR-L23; first compound 1.265 µM) was 0.614. The relative viability (COR-L23; first compound 4 µM) was 0.557, the relative viability (NCI-H1944; first compound 0.04 µM) was 0.808 and the relative viability (NCI-H1944; first compound 0.1265 µM) was 0.821. For the same molecule, the relative viability (NCI-H1944; first compound 0.4 µM) was 0.759, the relative viability (NCI-H1944; first compound 1.265 µM) was 0.673 and the relative viability (NCI-H1944; first compound 4 µM) was 0.729. The relative viability (NCI-H650; first compound 0.04 µM) was 0.87, the relative viability (NCI-H650; first compound 0.1265 µM) was 0.802 and the relative viability (NCI-H650; first compound 0.4 µM) was 0.816. For the same molecule, the relative viability (NCI-H650; first compound 1.265 µM) was 0.63, the relative viability (NCI-H650; first compound 4 µM) was 0.772 and the relative viability (SW 1573; first compound 0.04 µM) was 0.261. It also gave a relative viability (SW 1573; first compound 0.1265 µM) of 0.213, a relative viability (SW 1573; first compound 0.4 µM) of 0.194 and a relative viability (SW 1573; first compound 1.265 µM) of 0.205. For the same molecule, the relative viability (SW 1573; first compound 4 µM) was 0.242, the relative viability (201T; first compound 0.04 µM) was 1.01 and the relative viability (201T; first compound 0.1265 µM) was 1.04. It also gave a relative viability (201T; first compound 0.4 µM) of 1.08, a relative viability (201T; first compound 1.265 µM) of 1.03 and a relative viability (201T; first compound 4 µM) of 1.11.
